Drawing on ChEMBL document CHEMBL1148370, “Studies toward the discovery of the next generation of antidepressants. 3. Dual 5-HT1A and serotonin transporter affinity within a class of N-aryloxyethylindolylalkylamines” (J Med Chem, 2004), this text covers inhibition, IC50 and Ki for 27 compounds.

Chain of Sodium-dependent serotonin transporter (Rattus norvegicus, UniProt P31652) (P31652 whole entry): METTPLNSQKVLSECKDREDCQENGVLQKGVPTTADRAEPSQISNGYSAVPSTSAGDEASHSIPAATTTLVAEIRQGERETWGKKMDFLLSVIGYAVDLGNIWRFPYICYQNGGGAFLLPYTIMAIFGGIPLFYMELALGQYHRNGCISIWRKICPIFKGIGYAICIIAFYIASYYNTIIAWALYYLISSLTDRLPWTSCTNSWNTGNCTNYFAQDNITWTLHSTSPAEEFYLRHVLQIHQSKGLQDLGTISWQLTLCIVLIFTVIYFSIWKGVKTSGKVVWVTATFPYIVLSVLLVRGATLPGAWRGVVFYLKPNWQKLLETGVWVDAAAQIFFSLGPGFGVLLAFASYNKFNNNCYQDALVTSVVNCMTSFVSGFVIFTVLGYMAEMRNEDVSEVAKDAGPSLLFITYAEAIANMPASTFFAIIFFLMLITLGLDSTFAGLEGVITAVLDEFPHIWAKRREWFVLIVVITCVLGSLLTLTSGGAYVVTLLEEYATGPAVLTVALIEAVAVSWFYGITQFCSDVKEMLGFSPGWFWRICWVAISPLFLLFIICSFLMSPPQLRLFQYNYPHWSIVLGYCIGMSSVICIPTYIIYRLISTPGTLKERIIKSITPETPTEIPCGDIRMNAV

For the first test, the target named is Adrenergic receptor alpha-1 (Rattus norvegicus) (UniProt P15823+P23944+P43140). Briefly: Percent inhibition against rat cortical alpha-1 adrenergic receptor labeled with [3H]prazosin radioligand was determined. Format: protein assay. The note with it: concentration not given here.
`Fc1cc2c(c(OCCNCCCc3c[nH]c4ccc(F)cc34)c1)OCCC2`: the inhibition stood at 79%.
`COc1ccccc1OCCNCCCc1c[nH]c2ccc(F)cc12` came in with an inhibition of 95%.
In turn, `COc1ccccc1OCCNCCCCc1c[nH]c2ccccc12` displayed an inhibition of 99%.
On the same count and under the same terms, for `Fc1ccc2[nH]cc(CCNCCOc3cccc4c3OCCO4)c2c1` the value was 80%; for `Fc1cc2c(c(OCCNCCc3c[nH]c4ccc(F)cc34)c1)OCC2`, 85%; for `Fc1ccc2[nH]cc(CCCNCCOc3cccc4c3OCC4)c2c1`, 85%.
Same read-out and setting: for `Fc1ccc2[nH]cc(CCCNCCOc3cccc4[nH]cnc34)c2c1` the value was 93%; for `c1ccc2c(CCCNCCOc3cccc4[nH]ccc34)c[nH]c2c1`, 89%.

In the next test the target is Sodium-dependent serotonin transporter (Homo sapiens, UniProt P31645). It is filed as cell-based, JAR.
Chain of Sodium-dependent serotonin transporter (Homo sapiens, UniProt P31645) (P31645 whole entry): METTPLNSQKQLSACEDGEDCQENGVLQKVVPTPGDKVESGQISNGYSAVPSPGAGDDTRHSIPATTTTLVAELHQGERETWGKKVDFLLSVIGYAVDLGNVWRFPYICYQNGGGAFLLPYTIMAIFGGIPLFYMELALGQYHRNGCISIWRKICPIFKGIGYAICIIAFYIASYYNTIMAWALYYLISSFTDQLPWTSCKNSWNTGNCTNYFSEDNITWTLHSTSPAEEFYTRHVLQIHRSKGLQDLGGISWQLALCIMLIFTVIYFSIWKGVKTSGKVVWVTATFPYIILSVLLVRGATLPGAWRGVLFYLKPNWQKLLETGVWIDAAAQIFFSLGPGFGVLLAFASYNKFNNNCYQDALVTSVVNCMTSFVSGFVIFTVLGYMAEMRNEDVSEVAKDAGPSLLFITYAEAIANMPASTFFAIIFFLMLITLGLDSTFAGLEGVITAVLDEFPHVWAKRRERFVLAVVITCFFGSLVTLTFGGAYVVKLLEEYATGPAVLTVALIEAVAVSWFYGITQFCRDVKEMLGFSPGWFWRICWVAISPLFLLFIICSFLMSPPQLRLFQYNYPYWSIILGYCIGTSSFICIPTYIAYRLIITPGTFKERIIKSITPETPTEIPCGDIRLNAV
Conditions: not given
`Fc1cc2c(c(OCCNCCCc3c[nH]c4ccc(F)cc34)c1)OCCC2` returned an IC50 of 7 nM.
Still for that read-out and setting: for `Fc1ccc2[nH]cc(CCCNCCOc3cc(Cl)cc4[nH]cnc34)c2c1` the value was 4.5 nM.
On the same count and under the same terms, for `Fc1cc(OCCNCCCc2c[nH]c3ccc(F)cc23)c2c(c1)OCCO2` the value was 24.6 nM; for `Fc1ccc2[nH]cc(CCCNCCOc3cccc4c3CCCC4)c2c1`, 305 nM.
Compound `COc1ccccc1OCCNCCCc1c[nH]c2ccc(F)cc12` registered an IC50 of 20 nM.
Same read-out and setting: for `COc1ccc(F)cc1OCCNCCCc1c[nH]c2ccc(F)cc12` the value was 20.5 nM; for `Fc1ccc2[nH]cc(CCCNCCOc3cccc4c3OCCO4)c2c1`, 6.3 nM; for `Fc1ccc2[nH]cc(CCNCCOc3cccc4c3OCCO4)c2c1`, 84.7 nM.
On the same count and under the same terms, for `Fc1ccc2[nH]cc(CCCNCCOc3cccc4nccnc34)c2c1` the value was 20 nM; for `Fc1ccc2[nH]cc(CCCNCCOc3cccc4ccoc34)c2c1`, 28.1 nM.
Same read-out and setting: for `Fc1cc2c(c(OCCNCCCc3c[nH]c4ccc(F)cc34)c1)OCC2` the value was 61.5 nM.
On to `Fc1cc2c(c(OCCNCCc3c[nH]c4ccccc34)c1)OCCC2`, for which the IC50 turned out to be 42.2 nM.
Consider `Fc1cc2c(c(OCCNCCc3c[nH]c4ccc(F)cc34)c1)OCC2`, for which the midpoint of inhibition, the IC50, lay at 254 nM.
Same read-out and setting: for `Fc1ccc2[nH]cc(CCCNCCOc3cccc4c3OCC4)c2c1` the value was 9.7 nM; for `c1ccc2c(CCCCNCCOc3cccc4[nH]ccc34)c[nH]c2c1`, 862 nM.
For `COc1ccc(F)cc1OCCNCCc1c[nH]c2ccccc12`, the IC50 was 249 nM.
`Fc1ccc2[nH]cc(CCCNCCOc3cccc4[nH]ccc34)c2c1` yielded an IC50 of 24.4 nM.
In turn, `c1ccc2c(OCCNCCCc3c[nH]c4ccccc34)cccc2c1` gave an IC50 of 2170 nM.
Regarding `Fc1ccc2[nH]cc(CCCNCCOc3cccc4ncccc34)c2c1`, the IC50 came out at 73 nM.
On the same count and under the same terms, for `c1ccc2c(CCCNCCOc3cccc4[nH]ccc34)c[nH]c2c1` the value was 154 nM; for `Fc1ccc2[nH]cc(CCCNCCOc3ccccc3)c2c1`, 3790 nM.
On the same count and under the same terms, for `Fc1cc2c(c(OCCNCCc3c[nH]c4ccc(F)cc34)c1)OCCC2` the value was 86.4 nM.

A further test concerns the target Sodium-dependent serotonin transporter (Rattus norvegicus, UniProt P31652).
Conditions: not given
Regarding `Fc1cc(OCCNCCCc2c[nH]c3ccc(F)cc23)c2c(c1)OCCO2`, the affinity, expressed as Ki, was 0.49 nM.
Consider `Fc1cc(OCCNCCCc2c[nH]c3ccc(F)cc23)c2occc2c1`, for which the Ki came to 2.2 nM.
Still for that read-out and setting: for `Fc1ccc2[nH]cc(CCNCCOc3cccc4c3OCCO4)c2c1` the value was 13.5 nM; for `Fc1ccc2[nH]cc(CCCNCCOc3cccc4nccnc34)c2c1`, 1.2 nM; for `Fc1cc2c(c(OCCNCCCc3c[nH]c4ccc(F)cc34)c1)OCC2`, 1.17 nM.
Still for that read-out and setting: for `COc1ccc(F)cc1OCCNCCc1c[nH]c2ccc(F)cc12` the value was 23.5 nM; for `COc1ccc(F)cc1OCCNCCc1c[nH]c2ccccc12`, 43 nM; for `c1ccc2c(OCCNCCCc3c[nH]c4ccccc34)cccc2c1`, 123 nM.
On the same count and under the same terms, for `Fc1ccc2[nH]cc(CCCNCCOc3cccc4ncccc34)c2c1` the value was 1.1 nM.
Consider `Fc1ccc2[nH]cc(CCCNCCOc3ccccc3)c2c1`, for which the Ki was determined as 120 nM.

A further test has as its target T1, Adrenergic receptor alpha-1 (Rattus norvegicus, UniProt P15823+P23944+P43140).
T1 sequence (P15823 whole entry): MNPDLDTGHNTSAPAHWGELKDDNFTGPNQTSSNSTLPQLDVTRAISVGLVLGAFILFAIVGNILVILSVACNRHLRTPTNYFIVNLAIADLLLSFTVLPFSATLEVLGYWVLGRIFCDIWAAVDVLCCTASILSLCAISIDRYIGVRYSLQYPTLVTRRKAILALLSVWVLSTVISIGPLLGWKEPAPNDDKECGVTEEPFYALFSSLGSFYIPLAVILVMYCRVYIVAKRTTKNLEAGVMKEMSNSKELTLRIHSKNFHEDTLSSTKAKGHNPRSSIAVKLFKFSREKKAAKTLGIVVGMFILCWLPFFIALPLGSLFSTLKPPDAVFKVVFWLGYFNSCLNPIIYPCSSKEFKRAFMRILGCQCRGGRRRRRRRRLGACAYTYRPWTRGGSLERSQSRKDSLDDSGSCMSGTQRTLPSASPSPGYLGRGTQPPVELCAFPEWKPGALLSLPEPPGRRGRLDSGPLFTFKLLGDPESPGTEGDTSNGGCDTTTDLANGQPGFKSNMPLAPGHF
T1 sequence (P23944 whole entry): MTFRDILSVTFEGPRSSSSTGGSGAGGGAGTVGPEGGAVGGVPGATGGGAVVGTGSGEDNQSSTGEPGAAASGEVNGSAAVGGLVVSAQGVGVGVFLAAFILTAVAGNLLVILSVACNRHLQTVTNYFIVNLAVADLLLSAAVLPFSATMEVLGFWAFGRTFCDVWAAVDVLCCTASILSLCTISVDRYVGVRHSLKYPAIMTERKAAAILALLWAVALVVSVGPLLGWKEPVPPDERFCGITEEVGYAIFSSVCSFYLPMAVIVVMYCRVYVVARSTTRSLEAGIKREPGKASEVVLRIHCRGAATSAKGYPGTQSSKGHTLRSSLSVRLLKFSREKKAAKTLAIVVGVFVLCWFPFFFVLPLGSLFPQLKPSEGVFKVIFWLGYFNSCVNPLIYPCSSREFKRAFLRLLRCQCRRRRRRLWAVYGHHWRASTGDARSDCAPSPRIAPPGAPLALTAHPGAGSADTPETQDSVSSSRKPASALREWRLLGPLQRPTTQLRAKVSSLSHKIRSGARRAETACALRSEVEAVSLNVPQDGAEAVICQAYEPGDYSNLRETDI
T1 sequence (P43140 whole entry): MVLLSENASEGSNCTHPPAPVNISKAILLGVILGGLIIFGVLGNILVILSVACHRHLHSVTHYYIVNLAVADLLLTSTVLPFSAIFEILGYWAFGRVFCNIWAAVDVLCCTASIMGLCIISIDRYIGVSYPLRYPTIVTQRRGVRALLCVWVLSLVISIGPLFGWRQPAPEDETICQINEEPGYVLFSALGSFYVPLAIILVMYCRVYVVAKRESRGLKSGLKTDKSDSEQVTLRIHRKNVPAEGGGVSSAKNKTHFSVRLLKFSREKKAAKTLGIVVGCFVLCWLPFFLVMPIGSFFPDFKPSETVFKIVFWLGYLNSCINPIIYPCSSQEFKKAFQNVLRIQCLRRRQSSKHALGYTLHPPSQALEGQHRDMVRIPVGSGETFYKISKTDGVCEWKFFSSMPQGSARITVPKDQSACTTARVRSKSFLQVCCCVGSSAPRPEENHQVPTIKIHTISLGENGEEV
Conditions: not given
Compound `Fc1cc2c(c(OCCNCCCc3c[nH]c4ccc(F)cc34)c1)OCCC2` registered a Ki of 100 nM.
For the compound `Fc1ccc2[nH]cc(CCCNCCOc3cc(Cl)cc4[nH]cnc34)c2c1`, the inhibitory constant (Ki) is recorded as 4.6 nM.
Same read-out and setting: for `Fc1cc(OCCNCCCc2c[nH]c3ccc(F)cc23)c2c(c1)OCCO2` the value was 13.3 nM.
`Fc1cc(OCCNCCCc2c[nH]c3ccc(F)cc23)c2occc2c1` came in with a Ki of 34.3 nM.
With `COc1ccc(F)cc1OCCNCCCc1c[nH]c2ccc(F)cc12`, the Ki amounted to 2.5 nM.
On the same count and under the same terms, for `Fc1ccc2[nH]cc(CCCNCCOc3cccc4c3OCCO4)c2c1` the value was 9.6 nM; for `COc1ccccc1OCCNCCCCc1c[nH]c2ccccc12`, 100 nM; for `Fc1ccc2[nH]cc(CCNCCOc3cccc4c3OCCO4)c2c1`, 100 nM.
In turn, `Fc1ccc2[nH]cc(CCCNCCOc3cccc4nccnc34)c2c1` registered a Ki of 52 nM.
Compound `Fc1ccc2[nH]cc(CCCNCCOc3cccc4ccoc34)c2c1` gave a Ki of 27.7 nM.
`Fc1cc2c(c(OCCNCCCc3c[nH]c4ccc(F)cc34)c1)OCC2` showed an inhibitory constant (Ki) of 9.2 nM.
On the same count and under the same terms, for `Fc1cc2c(c(OCCNCCc3c[nH]c4ccccc34)c1)OCCC2` the value was 4.4 nM.
On the same count and under the same terms, for `COc1ccc(F)cc1OCCNCCc1c[nH]c2ccc(F)cc12` the value was 4.8 nM.
Still for that read-out and setting: for `Fc1cc2c(c(OCCNCCc3c[nH]c4ccc(F)cc34)c1)OCC2` the value was 100 nM; for `Fc1ccc2[nH]cc(CCCNCCOc3cccc4c3OCC4)c2c1`, 100 nM; for `Fc1ccc2[nH]cc(CCCNCCOc3cccc4[nH]cnc34)c2c1`, 100 nM.
For `COc1ccc(F)cc1OCCNCCc1c[nH]c2ccccc12`, the Ki is recorded as 3.3 nM.
For the compound `c1cnc2c(OCCNCCCc3c[nH]c4ccccc34)cccc2c1`, the Ki is reported as 7.4 nM.
Compound `Fc1ccc2[nH]cc(CCCNCCOc3cccc4[nH]ccc34)c2c1` returned a Ki of 5.6 nM.
On the same count and under the same terms, for `c1ccc2c(OCCNCCCc3c[nH]c4ccccc34)cccc2c1` the value was 204 nM; for `Fc1ccc2[nH]cc(CCCNCCOc3cccc4ncccc34)c2c1`, 122 nM.
As to `c1ccc2c(CCCNCCOc3cccc4[nH]ccc34)c[nH]c2c1`, the Ki was 100 nM.
As to `Fc1ccc2[nH]cc(CCCNCCOc3ccccc3)c2c1`, the Ki is listed as 3.4 nM.
Same read-out and setting: for `Fc1cc2c(c(OCCNCCc3c[nH]c4ccc(F)cc34)c1)OCCC2` the value was 11.9 nM.
